Assay results taken from ChEMBL document CHEMBL5543075, “Phenoxytacrine derivatives: Low-toxicity neuroprotectants exerting affinity to ifenprodil-binding site and cholinesterase inhibition” (Eur J Med Chem, 2024).

Key:
[1] = biological target: T1, Glutamate NMDA receptor; GRIN1/GRIN2B (Homo sapiens, UniProt Q05586+Q13224); test: Inhibition of recombinant human GluN1/GluN2B receptor expressed in HEK293 cells assessed as reduction in glutamate induced current at -20 mV holding potential by electrophysiology assay; format: cell-based
[2] = biological target: T1, Glutamate NMDA receptor; GRIN1/GRIN2B; test: Inhibition of recombinant human GluN1/GluN2B receptor expressed in HEK293 cells assessed as reduction in glutamate induced current at 1 uM at -60 mV holding potential by electrophysiology assay relative to control; format: cell-based
[3] = Cytotoxicity against CHO-K1 cells incubated for 24 hrs by MTT assay; format: toxicity, cell-based, Cricetulus griseus; conditions: Chinese hamster

IC50 [1]: ~2 µM | inhibition [2]: 33.1%
SMILES: Nc1c2c(nc3ccc(Oc4ccccc4)cc13)CCCC2
IC50 at 24 h [3]: 31 µM
